Assay [1] has as its system STAT3. As to the kind of experiment: Western blot / Bioplex phosphoprotein assay, STAT3 activation (pY705-STAT3) in cancer cell lines. The settings on record: for STAT3 inhibition on addition of JAK inhibitor to dasatinib: JAK inhibitor added to dasatinib; for effect of added inhibitor on STAT3 reactivation by dasatinib: Tu167 cells treated with dasatinib plus the inhibitor; for STAT3 inhibition / re-activation: Tu167 cells treated with one of three SFK inhibitors for 24 hours. For orientation: A western blot detects proteins with antibodies after separation by electrophoresis.

Assay [2] deals with wild-type BCR-ABL. Conditions: read-out: IC50 against wild-type BCR-ABL; Weisberg et al. 2006; cited from earlier work.
Assay [3] concerns imatinib-resistant BCR-ABL mutants. Conditions: number of mutants out of those tested; Weisberg et al. 2006; cited from earlier work.
Assay [4] deals with T1, c-Src (Homo sapiens, UniProt P12931).
T1 construct: endogenous in cells; host or cells: fifteen human cancer cell lines (HNSCC incl. Tu167, NSCLC, mesothelioma, squamous skin cancer)
T1 sequence (P12931 whole entry): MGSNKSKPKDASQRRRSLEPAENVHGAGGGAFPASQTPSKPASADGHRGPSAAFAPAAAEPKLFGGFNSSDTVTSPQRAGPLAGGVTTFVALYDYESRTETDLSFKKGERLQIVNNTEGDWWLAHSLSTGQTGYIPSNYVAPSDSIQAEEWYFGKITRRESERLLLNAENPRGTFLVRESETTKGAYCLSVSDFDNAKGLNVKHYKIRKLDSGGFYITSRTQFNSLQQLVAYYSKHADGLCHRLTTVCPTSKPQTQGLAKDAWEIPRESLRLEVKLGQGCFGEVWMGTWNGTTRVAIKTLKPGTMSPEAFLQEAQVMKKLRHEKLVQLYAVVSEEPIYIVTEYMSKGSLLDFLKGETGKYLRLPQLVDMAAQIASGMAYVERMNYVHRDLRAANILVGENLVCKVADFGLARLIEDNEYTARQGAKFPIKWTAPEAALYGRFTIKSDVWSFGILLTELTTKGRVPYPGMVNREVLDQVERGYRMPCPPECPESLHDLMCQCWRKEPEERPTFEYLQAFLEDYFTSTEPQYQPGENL
As to the kind of experiment: Western blot, c-Src inhibition in cancer cell lines. It counts as cell-based. The settings on record: Tu167 cells treated with one of three SFK inhibitors for 24 hours.

Assay [5] deals with AKT. As to the kind of experiment: Western blot, AKT downstream of Src in cancer cell lines. It counts as cell-based, human.
Assay [6] deals with STAT5. The assay can be described thus: Western blot, STAT5 downstream of Src in cancer cell lines. It counts as cell-based, human.
Assay [7] relates to FAK. As to the kind of experiment: Western blot, FAK downstream of Src in cancer cell lines. It counts as cell-based, human.
For assay [8], the target named is T2, IGF1R (Homo sapiens, UniProt P08069).
T2 construct: endogenous in cells
T2 sequence (P08069 31-1367): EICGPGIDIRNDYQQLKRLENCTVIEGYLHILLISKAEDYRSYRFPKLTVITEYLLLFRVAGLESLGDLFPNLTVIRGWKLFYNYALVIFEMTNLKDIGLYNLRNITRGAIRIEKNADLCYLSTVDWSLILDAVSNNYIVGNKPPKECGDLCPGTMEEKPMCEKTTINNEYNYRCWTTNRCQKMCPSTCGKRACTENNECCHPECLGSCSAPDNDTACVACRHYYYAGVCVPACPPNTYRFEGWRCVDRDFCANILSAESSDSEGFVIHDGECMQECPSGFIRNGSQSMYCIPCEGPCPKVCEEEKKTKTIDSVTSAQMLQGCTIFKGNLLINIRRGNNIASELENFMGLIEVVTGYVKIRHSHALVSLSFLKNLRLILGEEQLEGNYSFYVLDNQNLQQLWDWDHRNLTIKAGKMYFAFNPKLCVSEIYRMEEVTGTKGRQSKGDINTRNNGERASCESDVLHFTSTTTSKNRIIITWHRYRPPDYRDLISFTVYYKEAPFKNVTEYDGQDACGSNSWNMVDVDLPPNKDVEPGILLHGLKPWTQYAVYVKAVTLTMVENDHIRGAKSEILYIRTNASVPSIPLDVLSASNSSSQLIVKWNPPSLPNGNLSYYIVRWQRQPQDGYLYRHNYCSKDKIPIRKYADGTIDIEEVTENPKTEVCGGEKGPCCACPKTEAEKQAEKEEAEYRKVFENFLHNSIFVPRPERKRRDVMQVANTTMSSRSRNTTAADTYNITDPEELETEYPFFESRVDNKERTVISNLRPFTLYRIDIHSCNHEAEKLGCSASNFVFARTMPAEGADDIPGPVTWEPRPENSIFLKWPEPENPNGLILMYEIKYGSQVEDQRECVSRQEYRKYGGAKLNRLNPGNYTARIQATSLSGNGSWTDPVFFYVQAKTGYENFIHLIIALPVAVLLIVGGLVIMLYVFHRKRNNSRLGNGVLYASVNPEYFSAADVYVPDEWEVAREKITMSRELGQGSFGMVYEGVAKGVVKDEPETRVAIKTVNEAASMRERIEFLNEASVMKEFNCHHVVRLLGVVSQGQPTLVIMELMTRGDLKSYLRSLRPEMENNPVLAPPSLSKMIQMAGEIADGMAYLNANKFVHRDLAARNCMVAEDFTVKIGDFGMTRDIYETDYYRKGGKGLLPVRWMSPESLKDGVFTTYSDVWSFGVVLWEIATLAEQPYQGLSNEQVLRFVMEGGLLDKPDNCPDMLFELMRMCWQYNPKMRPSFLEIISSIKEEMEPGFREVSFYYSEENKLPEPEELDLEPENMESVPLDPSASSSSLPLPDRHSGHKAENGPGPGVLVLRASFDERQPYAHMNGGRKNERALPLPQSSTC
As to the kind of experiment: IGF1R activation in cells. It is filed as cell-based. Conditions: cells treated with dasatinib.

Assay [9] relates to IL-6. As to the kind of experiment: Cytokine profiling of cell media (25-plex bead kit), IL-6. It is filed as cell-based, human. Conditions: 100 nM dasatinib; serum-free and complete medium; 6 and 24 h.
For assay [10], the system named is IL-8. As to the kind of experiment: Cytokine profiling of cell media (25-plex bead kit), IL-8. It is filed as cell-based, human. Conditions: 100 nM dasatinib; serum-free and complete medium; 6 and 24 h.
Assay [11] relates to 25 human cytokines/chemokines. The assay can be described thus: Cytokine profiling of cell media (25-plex bead kit), other cytokines. Conditions: 100 nM dasatinib; serum-free and complete medium; 6 and 24 h. It counts as cell-based.
Assay [12] has as its system MAPK. Conditions: HNSCC cells treated with dasatinib; Johnson et al. 2005; cited from earlier work.
Assay [13] deals with head and neck squamous carcinoma and non-small cell lung cancer cell lines. Conditions: cited from earlier work.
Assay [14] concerns STAT3. The settings on record: panel of NSCLC cell lines with mutant or wild-type EGFR; literature; cited from earlier work.
Assay [15] has as its system MAPK. The assay can be described thus: Western blot, MAPK activation in HNSCC cells. The settings on record: Tu167 cells treated with EGF.
[16] abbreviates: Tu167 cells, 100 nM dasatinib for the indicated times.
Where [17] appears, read: all fifteen human cancer cell lines, 100 nM dasatinib, 0-24 h.

“Also recorded” adds a separate entry of the source.

Turning to `N#C/C(=C/c1ccc(O)c(O)c1)C(=O)NCc1ccccc1` [AG490], the “STAT3 inhibition on addition of JAK inhibitor to dasatinib” value in [1] was “sustained inhibition of STAT3”.

For `Cc1cn(-c2cc(NC(=O)c3ccc(C)c(Nc4nccc(-c5cccnc5)n4)c3)cc(C(F)(F)F)c2)cn1` [AMN107], the IC50 (in general, the concentration at which inhibition is half-maximal) in assay [2] is […]. In addition, the “imatinib-resistant BCR-ABL mutants against which significantly active” value in assay [3] is 32/33.

For the compound `COc1cccc(-c2cc(=O)c3ccccc3o2)c1N` [PD98059], the “effect of added inhibitor on STAT3 reactivation by dasatinib” value in assay [1] was “no effect on STAT3 reactivation”.

On to `Cc1ccc(-c2nn(C(C)(C)C)c3ncnc(N)c23)cc1` [PP1], for which the c-Src inhibition entry in [4] is “durable c-Src inhibition”. Further, the “STAT3 inhibition / re-activation” value in assay [1] (Western blot) is reported as “not inhibited at 24 hours”.

`COc1cc(Nc2c(C#N)cnc3cc(OCCCN4CCN(C)CC4)c(OC)cc23)c(Cl)cc1Cl` [SKI606]: the c-Src inhibition entry in assay [4] was “durable c-Src inhibition”. In assay [1] (Western blot), the “STAT3 inhibition / re-activation” value is reported as “not inhibited at 24 hours”.

`Cc1nc(Nc2ncc(C(=O)Nc3c(C)cccc3Cl)s2)cc(N2CCN(CCO)CC2)n1` [dasatinib, N-(2-chloro-6-methylphenyl)-2-[[6-[4-(2-hydroxyethyl)-1-piperazinyl]-2-methyl-4-pyrimidinyl]amino]-5-thiazolecarboxamide]: the AKT inhibition result is “durable inhibition” in assay [5] (setting [16]); “rapidly and durably inhibited” in assay [5] (setting [17]). Further, the STATS inhibition result in assay [6] (setting [16]) is “durable inhibition”; in [6] (setting [17]) it was “rapidly and durably inhibited”. Further, the FAK inhibition result is “durable inhibition” in assay [7] (setting [16]); “rapidly and durably inhibited” in [7] (setting [17]). In addition, the IGF1R activation entry in assay [8] was “nor did dasatinib affect IGF1R activation”. In [9], the IL-6 production result is given as “decreased”. Moreover, the IL-8 production entry in [10] is listed as “decreased”. Also, in [11], the “increase of any of 25 cytokines / growth factors assayed” value was “No cytokine or growth factor assayed was significantly increased”. The “production of IL-1beta, IL-12p40, IL-15, TNF-alpha, interferon-alpha, inducible protein-10, MIG, RANTES, IL-10” value in [11] is recorded as “unaffected”. For the same compound, in assay [12], the MAPK activation entry is recorded as “transiently activated”. Further, in assay [13], the “effects in cancer cell lines” value was “cytotoxicity, cell cycle arrest and apoptosis”. In addition, in assay [14], the “effect of SFK inhibition on STAT3 activation” value was “modest to absent”. Besides, the “STAT3 activation (pSTAT3)” value in assay [1] (14 of 15 solid tumor cell lines (HNSCC, NSCLC, mesothelioma, squamous skin carcinoma), 100 nM dasatinib, 0-24 h, Western blot) was “intitally inhibited but levels of pSTAT3 (Y105) returned to or above baseline by 24 h; also recorded: initially inhibited but reactivated by 24 h”. The “STAT3 inhibition / re-activation” value in [1] (Western blot) is “not inhibited at 24 hours”. For the same compound, the STAT3 inhibition entry in [1] (Tu167 cells, 100 nM dasatinib for the indicated times, Western blot) is listed as “not durably inhibited”. Moreover, in assay [1] (conditioned medium from Tu167 cells treated with dasatinib for 24 h transferred to fresh cells), the “STAT3 activation in fresh cells by conditioned medium” value is given as “did not observe any STAT3 activation”.

As to `C#Cc1cccc(Nc2ncnc3cc(OCCOC)c(OCCOC)cc23)c1` [erlotinib], in assay [1], the “effect of added inhibitor on STAT3 reactivation by dasatinib” value is “did not affect the STAT3 reactivation”.

For the compound `CC(C)(C)c1nc2c3cc[nH]c(=O)c3c3cc(F)ccc3c2[nH]1` [pyridone 6], the “STAT3 inhibition on addition of JAK inhibitor to dasatinib” value in [1] was “sustained inhibition of STAT3”.

“EGF: epidermal growth factor, used to stimulate cells (NSDSECPLSHDGYCLHDGVCMYIEALDKYACNCVVGYIGERCQYRDLKWWELR; UniProt P01133 971-1023, looked up)”: the “MAPK activation on stimulation” value in [15] is reported as “markedly activated”. In addition, the “STAT3 activation on stimulation” value in assay [1] (Tu167 cells treated with EGF) was “slight increase in STAT3 activation”.

Turning to insulin-like growth factor, in [1] (stimulation of cells with insulin-like growth factor), the “STAT3 activation on stimulation” value is reported as “did not lead to significant activation of STAT3”.

These data come from US20130012519A1, “Biomarker Identifying the Reactivation of STAT3 After Src Inhibition” (BRISTOL-MYERS SQUIBB COMPANY, priority 2006, published 2013).
